Data from patent publication US20260042764A1, “COMPOSITIONS AND METHODS FOR INHIBITION OF KRAS” (TheRas, Inc., priority 2022, published 2026).
pIC50: −log10 of the molar value.

What was measured:
[1] = target: T1, Avi-KRAS WT (2-169) GTP/RAF1 RBD-3xFLAG (51-131) (Homo sapiens, UniProt P01116); test: Raf1-KRAS WT-GTP disruption HTRF assay (Biological Example 3); assay type: binding; settings: KRAS WT, GTP-loaded
T1 construct: Avi-KRAS WT (2-169)
Procedure: (§1) Biological Example 3: Disrupting RAS-Effector Binding HTRF Assay
(§2) A protein:protein interaction (PPI) Homogeneous Time Resolved Fluorescence (HTRF) assay was used to determine the effectiveness of compounds in disrupting KRAS protein and effector (RAF1) binding.
(§3) The HTRF assay used the following reagents and proteins: (i) 50 nM Avi-KRAS G12D (2-169) GTP/RAF1 RBD-3xFLAG (51-131): (ii) 50 nM Avi-KRAS G12C (2-169) GTP/RAF1 RBD-3xFLAG (51-131): (iii) 50 nM Avi-KRAS G12V (2-169) GTP/RAF1 RBD-3xFLAG (51-131); (iv) 50 nM Avi-KRAS WT (2-169) GTP/RAF1 RBD-3xFLAG (51-131); and (v) 75 nM 3xFLAG-RAF1 RBD (51-131)-Avi. The assay buffer included: 50 mM Tris pH 7.5 (Invitrogen, 15567-027), 100 mM NaCl (Sigma, S5150-IL), 5 mM MgCl2 (Sigma, 63069), 0.1% BSA (Sigma, A7030), 0.01% Tween 20 (Sigma, P7949), 10% DMSO (Cell Signaling, 12611). The bead buffer included: 50 mM Tris pH 7.5 (Invitrogen, 15567-027), 0.01% Tween 20 (Sigma, P7949). An assay volume of 20 μL was used in a 384 well plate-low volume format. Compound titration: 30-0.005 μM, 3x dilution series.
(§4) The HTRF assay employed the following protocol:
(§5) Compounds were dispensed in assay plate (384-well, Grenier Bio-One #784075) using Echo (model 555) with dose response settings: 200 nL final volume, titration from 30 μM as a 10-point dilution series. Proteins and HTRF reagents were mixed and dispensed onto plates, 20 μL per well, and then incubated for 1 h at room temperature, with 700 rpm shaking.
(§6) Plates were analyzed on an Envision plate reader using the following setting: Excitation 320 nm, Bandwidth 75 nm; Emission 615 nm, Bandwidth 85 nm; Gain 100%; Flashes 100; Lag 60 μs. Data was reported as percentage of activity, with DMSO as 100%. Data was plotted and analyzed using Prism 8.
(§7) The biochemical Raf1-KRAS G12D/G12V/G12C/WT-GTP disruption assay IC50 of selected compounds described herein are shown in Table 12.

SW620 cells (KRAS G12V) = test: Cell-based pERK HTRF assay in SW620 cell (Biological Example 4)
Outline: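 This assay measures inhibition of ERK phosphorylation downstream of KRAS G12V in intact SW620 cells. Compounds are applied for 4 h over nine half-log concentrations starting at 1 μM, and pERK is quantified by HTRF.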

[2] = target: T2, Avi-KRAS G12V (2-169) GTP/RAF1 RBD-3xFLAG (51-131) (Homo sapiens, UniProt P01116, G12V); test: Raf1-KRAS G12V-GTP disruption HTRF assay (Biological Example 3); assay type: binding; settings: KRAS G12V, GTP-loaded
T2 construct: Avi-KRAS G12V (2-169)
T2 sequence (P01116 2-169 isoform P01116-2 G12V): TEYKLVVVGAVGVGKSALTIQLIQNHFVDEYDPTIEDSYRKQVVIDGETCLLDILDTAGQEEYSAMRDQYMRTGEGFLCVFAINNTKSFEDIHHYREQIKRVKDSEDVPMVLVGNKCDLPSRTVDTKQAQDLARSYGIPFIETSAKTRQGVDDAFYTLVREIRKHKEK
Procedure: as §1, §2, §3, §4, §5, §6, §7

[3] = target: T3, Avi-KRAS G12C (2-169) GTP/RAF1 RBD-3xFLAG (51-131) (Homo sapiens, UniProt P01116, G12C); test: Raf1-KRAS G12C-GTP disruption HTRF assay (Biological Example 3); assay type: binding; settings: KRAS G12C, GTP-loaded
T3 construct: Avi-KRAS G12C (2-169)
T3 sequence (P01116 2-169 isoform P01116-2 G12C): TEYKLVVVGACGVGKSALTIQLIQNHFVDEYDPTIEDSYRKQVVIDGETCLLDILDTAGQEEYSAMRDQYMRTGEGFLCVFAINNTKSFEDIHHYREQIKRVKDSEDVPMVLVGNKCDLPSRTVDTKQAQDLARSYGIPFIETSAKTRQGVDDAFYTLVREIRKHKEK
Procedure: as §1, §2, §3, §4, §5, §6, §7

GP2d cells (KRAS G12D) = test: Cell-based pERK HTRF assay in GP2d cell (Biological Example 2); settings: GP2d (KRAS G12D) cells
Outline: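 HTRF read-out of pERK (excitation 320 nm, emission 615 nm) after lysates sat 4–24 h at room temperature with Eu cryptate and d2 antibodies.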

[4] = target: T4, Avi-KRAS G12D (2-169) GTP/RAF1 RBD-3xFLAG (51-131) (Homo sapiens, UniProt P01116, G12D); test: Raf1-KRAS G12D-GTP disruption HTRF assay (Biological Example 3); assay type: binding; settings: KRAS G12D, GTP-loaded
T4 construct: Avi-KRAS G12D (2-169)
T4 sequence (P01116 2-169 isoform P01116-2 G12D): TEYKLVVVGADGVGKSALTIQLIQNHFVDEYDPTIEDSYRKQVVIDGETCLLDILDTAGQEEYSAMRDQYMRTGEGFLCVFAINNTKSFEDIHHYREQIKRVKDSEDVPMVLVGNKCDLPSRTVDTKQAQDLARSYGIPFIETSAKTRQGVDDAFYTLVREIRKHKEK
Procedure: as §1, §2, §3, §4, §5, §6, §7

[5] = Homo sapiens, SW-620, SW620 (KRAS G12V) cells

T1 sequence (P01116 2-169 isoform P01116-2): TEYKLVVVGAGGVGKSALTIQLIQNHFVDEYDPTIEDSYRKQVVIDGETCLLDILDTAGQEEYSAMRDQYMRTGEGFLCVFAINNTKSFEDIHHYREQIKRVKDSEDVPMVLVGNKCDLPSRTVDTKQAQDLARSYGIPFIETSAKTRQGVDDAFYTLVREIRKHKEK

Structure (SMILES)	pIC50 [1]	pIC50 (SW620 cells (KRAS G12V); [5])	pIC50 [2]	pIC50 [3]	pIC50 (GP2d cells (KRAS G12D); GP2d)	pIC50 [4]	pIC50 (SW620 cells (KRAS G12V); SW620 (KRAS G12V) cells)	pIC50 (GP2d cells (KRAS G12D))
CCN(c1nc(OC[C@@]23CCCN2C[C@H](F)C3)nc2c(F)c(-c3ccc(F)c4sc(N)c(C#N)c34)c(C(F)(F)F)cc12)[C@@H]1CC[C@H](C(=O)N(C)C)C1 [Compound 959]	5.00 to 6.00	> 7.00	5.00 to 6.00	5.00 to 6.00	> 7.00	5.00 to 6.00		
CCN(c1nc(OC[C@@]23CCCN2C[C@H](F)C3)nc2c(F)c(-c3ccc(F)c4sc(N)c(C#N)c34)c(C(F)(F)F)cc12)[C@@H]1CCN(c2cccn(C)c2=O)C1 [Compound 964]	5.00 to 6.00	> 7.00	5.00 to 6.00	5.00 to 6.00	> 7.00	5.00 to 6.00		
CN(Cc1ccnnc1)c1nc(OC[C@@]23CCCN2C[C@H](F)C3)nc2c(F)c(-c3ccc(F)c4sc(N)c(C#N)c34)c(C(F)(F)F)cc12 (atropisomer, axis not shown) [Compound 896]	5.00 to 6.00	> 7.00	5.00 to 6.00	5.00 to 6.00	> 7.00	6.00 to 7.00		
CCN(c1nc(OC[C@]23CCCN2C[C@H](F)C3)nc2c(F)c(-c3ccc(F)c4sc(N)c(C#N)c34)c(C(F)(F)F)cc12)[C@H]1CCN(C(=O)OC)C1 (atropisomer, axis not shown) [Compound 955]	< 5.00		< 5.00	< 5.00		5.00 to 6.00	6.00 to 7.00	> 7.00
CCN(c1nc(OC[C@@]23CCCN2C[C@H](F)C3)nc2c(F)c(-c3ccc(F)c4sc(N)c(C#N)c34)c(C(F)(F)F)cc12)[C@H]1CCN(c2ccccn2)C1 [Compound 948]	< 5.00	> 7.00	< 5.00	5.00 to 6.00	> 7.00	5.00 to 6.00		
CCN(c1nc(OCC23CCCN2CC(F)C3)nc2c(F)c(-c3ccc(F)c4sc(N)c(C#N)c34)c(C(F)(F)F)cc12)C1CCN(C(=O)c2ccc(Cl)s2)C1 (stereo not drawn) [Compound 929]	6.00 to 7.00		6.00 to 7.00	6.00 to 7.00		6.00 to 7.00	> 7.00	> 7.00
CCN(c1nc(OC[C@@]23CCCN2C[C@H](F)C3)nc2c(F)c(-c3ccc(F)c4sc(N)c(C#N)c34)c(C(F)(F)F)cc12)[C@H]1CCN(C(=O)OCC2COC2)[C@@H]1C (atropisomer, axis not shown) [Compound 835]	5.00 to 6.00	> 7.00	6.00 to 7.00	≥ 7.00	> 7.00	6.00 to 7.00		
CCN(c1nc(OC[C@@]23CCCN2C[C@H](F)C3)nc2c(F)c(-c3ccc(F)c4sc(N)c(C#N)c34)c(C(F)(F)F)cc12)[C@H]1CCN(C(=O)c2ncc(C#N)s2)C1 (atropisomer, axis not shown) [Compound 956]	5.00 to 6.00	> 7.00	6.00 to 7.00	6.00 to 7.00	> 7.00	6.00 to 7.00		
CCN(c1nc(OC[C@@]23CCCN2C[C@H](F)C3)nc2c(F)c(-c3ccc(F)c4sc(N)c(C#N)c34)c(C(F)(F)F)cc12)[C@H]1CCN(C(=O)[C@H]2C[C@@H](F)C2)C1 (atropisomer, axis not shown) [Compound 842]	6.00 to 7.00	> 7.00	6.00 to 7.00	6.00 to 7.00	> 7.00	6.00 to 7.00		
CCN(c1nc(OC[C@@]23CCCN2C[C@H](F)C3)nc2c(F)c(-c3ccc(F)c4sc(N)c(C#N)c34)c(C(F)(F)F)cc12)[C@H]1CCN(C(=O)[C@@H]2C[C@H]2F)[C@@H]1C (atropisomer, axis not shown) [Compound 892]	6.00 to 7.00	> 7.00	6.00 to 7.00	6.00 to 7.00	> 7.00	6.00 to 7.00		
CN(c1nc(OCC23CCCN2CC(F)C3)nc2c(F)c(-c3ccc(F)c4sc(N)c(C#N)c34)c(C(F)(F)F)cc12)C1CCc2ccncc21 (stereo not drawn) [Compound 962]	5.00 to 6.00		< 5.00	< 5.00		5.00 to 6.00	> 7.00	> 7.00
C/C=C/C(=O)N1C[C@@H](N(CC)c2nc(OC[C@@]34CCCN3C[C@H](F)C4)nc3c(F)c(-c4ccc(F)c5sc(N)c(C#N)c45)c(C(F)(F)F)cc23)C[C@@H]1COC (atropisomer, axis not shown) [Compound 845]	6.00 to 7.00	> 7.00	6.00 to 7.00	6.00 to 7.00	> 7.00	6.00 to 7.00		

More lines, now with the values ahead:

pIC50 [1]	pIC50 (SW620 cells (KRAS G12V); [5])	pIC50 [2]	pIC50 [3]	pIC50 (GP2d cells (KRAS G12D); GP2d)	pIC50 [4]	pIC50 (SW620 cells (KRAS G12V); SW620 (KRAS G12V) cells)	pIC50 (GP2d cells (KRAS G12D))	Structure (SMILES)
6.00 to 7.00	> 7.00	6.00 to 7.00	6.00 to 7.00	> 7.00	6.00 to 7.00			CCN(c1nc(OC[C@@]23CCCN2C[C@H](F)C3)nc2c(F)c(-c3ccc(F)c4sc(N)c(C#N)c34)c(C(F)(F)F)cc12)[C@H]1CCN(C(=O)OC2CCOCC2)[C@@H]1C (atropisomer, axis not shown) [Compound 825]
6.00 to 7.00	> 7.00	6.00 to 7.00	6.00 to 7.00	> 7.00	6.00 to 7.00			CCN(c1nc(OC[C@@]23CCCN2C[C@H](F)C3)nc2c(F)c(-c3ccc(F)c4sc(N)c(C#N)c34)c(C(F)(F)F)cc12)[C@H]1CCN(C(=O)O[C@@H]2CCOC2)[C@@H]1C (atropisomer, axis not shown) [Compound 824]
6.00 to 7.00	> 7.00	≥ 7.00	6.00 to 7.00	> 7.00	6.00 to 7.00			CCN(c1nc(OC[C@@]23CCCN2C[C@H](F)C3)nc2c(F)c(-c3ccc(F)c4sc(N)c(C#N)c34)c(C(F)(F)F)cc12)[C@H]1C[C@H](C)N(C(=O)[C@@H]2C[C@H]2F)C1 (atropisomer, axis not shown; (aS)) [Compound 893, 2-amino-4-((S)-4-(ethyl((3S,5S)-1-((1S,2R)-2-fluorocyclopropane-1-carbonyl)-5-methylpyrrolidin-3-yl)amino)-8-fluoro-2-(((2R,7aS)-2-fluorotetrahydro-1H-pyrrolizin-7a (5H)-yl)methoxy)-6-(trifluoromethyl)quinazolin-7-yl)-7-fluorobenzo[b]thiophene-3-carbonitrile]
≥ 7.00	> 7.00	≥ 7.00	≥ 7.00	> 7.00	≥ 7.00			CCN(c1nc(OC[C@@]23CCCN2C[C@H](F)C3)nc2c(F)c(-c3ccc(F)c4sc(N)c(C#N)c34)c(C(F)(F)F)cc12)[C@H]1CCN(C(=O)[C@@H]2CCO2)[C@@H]1C (atropisomer, axis not shown) [Compound 918]
6.00 to 7.00	> 7.00	6.00 to 7.00	6.00 to 7.00	> 7.00	6.00 to 7.00			CCN(c1nc(OC[C@@]23CCCN2C[C@H](F)C3)nc2c(F)c(-c3ccc(F)c4sc(N)c(C#N)c34)c(C(F)(F)F)cc12)[C@H]1CCN(C(=O)c2ccon2)[C@@H]1C [Compound 838]
